From US10478574B2, “Nasal administration” (OptiNose AS, priority 2006, dated 2019)

How the values were obtained:
[1] = Blood plasma pharmacokinetics of midazolam for three administration systems (Example #1); conditions: for Cl (obs) / Vz (obs): not corrected for bio-availability; for bio-availability: mean (95% CI); for AUC(0-t): AUClast
Protocol: In this study, twelve healthy subjects, 4 male and 8 female, were studied.
In separate sessions, the subjects received 3.4 mg of midazolam by one of three different administration systems, these being: • (i) an intravenous administration system in which a midazolam formulation was intravenously administered; • (ii) a conventional nasal spray administration system in which a midazolam formulation was conventionally nasally administered using a spray pump as supplied by Ing Erich Pfeiffer GmbH (Radolfsee, Germany) which is specified to generate a liquid spray with a mean particle size of 43 μm, with 100 μl of the formulation being delivered to each nostril; and • (iii) the bi-directional administration system of the first-described embodiment, and incorporating the same spray pump as the conventional nasal spray administration system, in which a midazolam formulation was nasally administered, with 100 μl of the formulation being delivered to each nostril.
Each study session was six hours in duration, and the sessions were separated by at least one week.
The intravenous formulation was a commercial midazolam HCl formulation (1 mg/ml (free base)) as supplied by Alpharma Inc (New Jersey, USA).
The nasal formulation was an aqueous solution containing midazolam base (1.7% w/v), sulfobutylether-β-cyclodextrin sodium salt with a molar substitution of 6.2 (Captisol®) (14% w/v) as supplied by CyDex Inc (Kansas, USA), hydroxypropyl methylcellulose (0.1% w/v), benzalkonium chloride (0.02% w/v), ethylene diaminetetraacetic acid (0.1% w/v) and phosphoric acid (0.73% w/v). The pH of the formulation was adjusted to a pH of between 4.20 and 4.35 with sodium hydroxide.
Venous blood samples, each having a volume of 9 ml, were drawn just prior to administration and at 2, 5, 10, 15, 20, 25, 30, 35, 45, 60, 90, 120, 240 and 360 minutes after administration, in order to allow for a determination of the blood plasma concentration of midazolam.
The blood plasma concentration of midazolam was determined according to Martens et al.
Samples, spiked with diazepam as an internal standard, were alkalised and extracted by toluene containing 0.1% w/v amyl alcohol. The resulting organic phase for each of the samples was then evaporated and the residue for each of the samples was derivatized with TBDMSTFA (/tert/-Butyldimethylsilyl)-N-methyltrifluoroacetamide with 1% w/v tert-butyldimethylsilyllchloride) at 60 °C. After the excess of TBDMSTFA was evaporated, the residue for each of the samples was dissolved in ethyl acetate and analyzed in a gas chromatograph, in this embodiment an HP 5890 gas chromatograph equipped with an HP 5972 mass-spectrometry detector as supplied by Hewlett Packard Inc (USA). The midazolam and diazepam components were quantified by the mass ions 310 and 256, respectively.
In this study, the midazolam clearance, the volume of distribution, the elimination rate, the maximum plasma concentration Cmax, the time maximum plasma concentration Tmax, and the area under the curve AUC (linear trapezoidal rule) were calculated by computerized curve fitting using the Win-Nonlin Standard 4.1 as supplied by Pharsight Corporation (California, USA). The systemic clearance (Cl)=dose/AUCiv, the apparent nasal clearances (Cln)=dose/AUCn, and the respective bioavailabilities (Fx)=(AUCx/dosey)/(AUCy/dosex) were determined from the calculated values.
In the results, the data is given as a median (min-max) or a mean (95% confidence interval (CI)). Regression analysis and ANOVA were used as appropriate. A bi-variate correlation (Pearson) was used to determine associations between variables. A paired sample t-test was used for group comparisons.

[2] = Subjective sedation score on numeric rating scale (NRS) 0-10 after midazolam (Example #1); type: in vivo, human
Protocol: Subjective sedation was scored by a numeric rating scale (NRS) 0-10, where 0 is fully awake and 10 is falling asleep or as tired as you can imagine at 0, 2, 5, 10, 15, 20, 25, 30, 35, 45, 60, 90, 120 and 360 minutes after administration.

[3] = bi-directional nasal administration system, 3.4 mg, mean
[4] = both, human, plasma, inhaled or intranasal, 3.4 mg, bi-directional nasal administration system, mean
[5] = both, human, plasma, inhaled or intranasal, 3.4 mg, conventional nasal spray administration system, mean
[6] = both, human, plasma, iv, 3.4 mg
[7] = both, human, plasma, iv, 3.4 mg, intravenous administration system, mean
[8] = conventional nasal spray administration system, 3.4 mg, mean

Compound: Cc1ncc2n1-c1ccc(Cl)cc1C(c1ccccc1F)=NC2 [midazolam]
- AUCinf [1, 3]: 5364 ng·min/mL
- Cl (obs) [1, 3]: 589 mL/min
- Vz (obs) [1, 3]: 98551 mL
- bio-availability ([1]; bi-directional spray administration system vs intravenous): 0.69 (0.57, 0.81)
- AUC(0-inf) ([1]; both, human, plasma, inhaled or intranasal, 3.4 mg): 87.8 ng·h/mL
- AUC(0-t) [1, 4]: 76.9 ng·h/mL
- AUC(0-t) [1, 5]: 77.1 ng·h/mL
- Cmax [1, 4]: 44 ng/mL
- Cmax [1, 5]: 53 ng/mL
- half-life ([1]; both, human, plasma, inhaled or intranasal, 3.4 mg, T1/2, bi-directional nasal administration system, mean): 1.98 h
- half-life ([1]; both, human, plasma, inhaled or intranasal, 3.4 mg, T1/2, conventional nasal spray administration system, mean): 1.9 h
- Tmax [1, 4]: 0.267 h
- Tmax [1, 5]: 0.25 h
- AUC(0-inf) [1, 6]: 136 ng·h/mL
- Vd [1, 6]: 65.4 L
- clearance [1, 6]: 451 mL/min
- AUC(0-t) [1, 7]: 122 ng·h/mL
- Cmax [1, 7]: 152 ng/mL
- half-life ([1]; both, human, plasma, iv, 3.4 mg, T1/2, intravenous administration system, mean): 1.73 h
- Tmax [1, 7]: 0.0417 h
- Cl (obs) [1, 8]: 551 mL/min
- Vz (obs) [1, 8]: 90691 mL
- bio-availability ([1]; conventional spray administration system vs intravenous): 0.68 (037, 0.80)
- CNS effect (sedation score as a function of blood plasma concentration) ([2]; bi-directional administration system compared with conventional nasal spray): substantially greater CNS effect than the conventional nasal spray administration system
- sedation scores ([2]; bi-directional administration system compared with intravenous, 3.4 mg, median NRS): equivalent to those of the intravenous administration system
- onset of action ([2]; bi-directional administration system compared with the other systems, 3.4 mg): considerably faster than the conventional nasal spray administration system
- ratio of peak CNS effect to Cmax relative to intravenous administration ([2]; bi-directional administration system, 3.4 mg): about 3.5 times
